Measurements reported in PubChem BioAssay AID1963853 (Molecular Pharmacology Branch, DTP, NCI, 2024).

Test system: 266295-075-R-J1-PDC spheroid viability
Assay: Anticancer human tumor 266295-075-R-J1-PDC patient-derived head and neck squamous carcinoma cell line growth inhibition [POLQ]
Settings: spheroids with HUVEC and MSC; for IC50: curve of first compound; for viability, T/C: stronger effect = lower value
In short: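 Growth inhibition in 3D: complex spheroids (tumor PDC, HUVEC, MSC) treated with POLQ inhibitor combinations; where Cmax unknown, highest tested concentration 10 microM, except SN-38 at 1 microM.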

[1] = second compound 0.0316 µM, first compound 0.0316 µM
[2] = second compound 0.0316 µM, first compound 0.1 µM
[3] = second compound 0.0316 µM, first compound 0.316 µM
[4] = second compound 0.0316 µM, first compound 1 µM
[5] = second compound 0.0316 µM, first compound 3.16 µM
[6] = second compound 0.0316 µM, first compound 10 µM
[7] = second compound 0.1 µM, first compound 0.0316 µM
[8] = second compound 0.1 µM, first compound 0.1 µM
[9] = second compound 0.1 µM, first compound 0.316 µM
[10] = second compound 0.1 µM, first compound 1 µM
[11] = second compound 0.1 µM, first compound 3.16 µM
[12] = second compound 0.1 µM, first compound 10 µM
[13] = second compound 0.316 µM, first compound 0.0316 µM
[14] = second compound 0.316 µM, first compound 0.1 µM
[15] = second compound 0.316 µM, first compound 0.316 µM
[16] = second compound 0.316 µM, first compound 1 µM
[17] = second compound 0.316 µM, first compound 3.16 µM
[18] = second compound 0.316 µM, first compound 10 µM
[19] = second compound 1 µM, first compound 0.0316 µM
[20] = second compound 1 µM, first compound 0.1 µM
[21] = second compound 1 µM, first compound 0.316 µM
[22] = second compound 1 µM, first compound 1 µM
[23] = second compound 1 µM, first compound 3.16 µM
[24] = second compound 1 µM, first compound 10 µM
[25] = second compound 3.16 µM, first compound 0.0316 µM
[26] = second compound 3.16 µM, first compound 0.1 µM
[27] = second compound 3.16 µM, first compound 0.316 µM
[28] = second compound 3.16 µM, first compound 1 µM
[29] = second compound 3.16 µM, first compound 3.16 µM
[30] = second compound 3.16 µM, first compound 10 µM
[31] = second compound 10 µM, first compound 0.0316 µM
[32] = second compound 10 µM, first compound 0.1 µM
[33] = second compound 10 µM, first compound 0.316 µM
[34] = second compound 10 µM, first compound 1 µM
[35] = second compound 10 µM, first compound 3.16 µM
[36] = second compound 10 µM, first compound 10 µM
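Also: spheroids exposed to compounds for seven days before readout.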

## Nc1ccn(C2OC(CO)C(O)C2(F)F)c(=O)n1 (stereo unspecified) + Cc1cccc(N(C)C(=O)C2C(O)CCN2c2nc(C)cc(C(F)(F)F)c2C#N)c1
Second compound 0.0316 µM
  IC50: > 10 µM
Second compound 0.1 µM
  IC50: > 10 µM
Second compound 0.316 µM
  IC50: > 10 µM
Second compound 1 µM
  IC50: > 10 µM
Second compound 3.16 µM
  IC50: > 10 µM
Second compound 10 µM
  IC50: > 10 µM
[1]
  viability, T/C: 93.5%
[2]
  viability, T/C: 81.9%
[3]
  viability, T/C: 81.5%
[4]
  viability, T/C: 68.3%
[5]
  viability, T/C: 79.5%
[6]
  viability, T/C: 69.4%
[7]
  viability, T/C: 85.8%
[8]
  viability, T/C: 93%
[9]
  viability, T/C: 79.6%
[10]
  viability, T/C: 76%
[11]
  viability, T/C: 83.3%
[12]
  viability, T/C: 73.7%
[13]
  viability, T/C: 87.8%
[14]
  viability, T/C: 78.5%
[15]
  viability, T/C: 77%
[16]
  viability, T/C: 94.9%
[17]
  viability, T/C: 76.6%
[18]
  viability, T/C: 72.4%
[19]
  viability, T/C: 99.8%
[20]
  viability, T/C: 82.8%
[21]
  viability, T/C: 86%
[22]
  viability, T/C: 84.7%
[23]
  viability, T/C: 80.8%
[24]
  viability, T/C: 80.2%
[25]
  viability, T/C: 90.6%
[26]
  viability, T/C: 96.9%
[27]
  viability, T/C: 72.8%
[28]
  viability, T/C: 78.1%
[29]
  viability, T/C: 91%
[30]
  viability, T/C: 67.1%
[31]
  viability, T/C: 86.8%
[32]
  viability, T/C: 88.4%
[33]
  viability, T/C: 72%
[34]
  viability, T/C: 75.1%
[35]
  viability, T/C: 82.1%
[36]
  viability, T/C: 68.2%

## COc1cc(C2c3cc4c(cc3C(OC3OC5COC(C)OC5C(O)C3O)C3COC(=O)C23)OCO4)cc(OC)c1O (stereo unspecified) + COC1C(OC(N)=O)C(O)C(Oc2ccc3c(O)c(NC(=O)c4ccc(O)c(CC=C(C)C)c4)c(=O)oc3c2C)OC1(C)C
Second compound 0.0316 µM
  IC50: > 10 µM
Second compound 0.1 µM
  IC50: > 10 µM
Second compound 0.316 µM
  IC50: > 10 µM
Second compound 1 µM
  IC50: > 10 µM
Second compound 3.16 µM
  IC50: > 10 µM
Second compound 10 µM
  IC50: > 10 µM
[1]
  viability, T/C: 81.4%
[2]
  viability, T/C: 118%
[3]
  viability, T/C: 93.5%
[4]
  viability, T/C: 89.6%
[5]
  viability, T/C: 89.1%
[6]
  viability, T/C: 76.9%
[7]
  viability, T/C: 88.7%
[8]
  viability, T/C: 105%
[9]
  viability, T/C: 110%
[10]
  viability, T/C: 83.2%
[11]
  viability, T/C: 85.1%
[12]
  viability, T/C: 77.4%
[13]
  viability, T/C: 90.1%
[14]
  viability, T/C: 98.5%
[15]
  viability, T/C: 89.8%
[16]
  viability, T/C: 87%
[17]
  viability, T/C: 83.3%
[18]
  viability, T/C: 82%
[19]
  viability, T/C: 101%
[20]
  viability, T/C: 92.1%
[21]
  viability, T/C: 86.3%
[22]
  viability, T/C: 96.9%
[23]
  viability, T/C: 91.1%
[24]
  viability, T/C: 72.2%
[25]
  viability, T/C: 102%
[26]
  viability, T/C: 91.2%
[27]
  viability, T/C: 114%
[28]
  viability, T/C: 94.7%
[29]
  viability, T/C: 99%
[30]
  viability, T/C: 83%
[31]
  viability, T/C: 116%
[32]
  viability, T/C: 116%
[33]
  viability, T/C: 120%
[34]
  viability, T/C: 92.4%
[35]
  viability, T/C: 110%
[36]
  viability, T/C: 80.5%

## O=C(Nc1ccc(O)c(NS(=O)(=O)c2ccc(F)cc2)c1)c1ccc(-c2ccccc2)cc1 + Cc1cccc(N(C)C(=O)C2C(O)CCN2c2nc(C)cc(C(F)(F)F)c2C#N)c1
Second compound 0.0316 µM
  IC50: > 10 µM
Second compound 0.1 µM
  IC50: > 10 µM
Second compound 0.316 µM
  IC50: > 10 µM
Second compound 1 µM
  IC50: > 10 µM
Second compound 3.16 µM
  IC50: > 10 µM
Second compound 10 µM
  IC50: > 10 µM
[1]
  viability, T/C: 96.1%
[2]
  viability, T/C: 104%
[3]
  viability, T/C: 125%
[4]
  viability, T/C: 139%
[5]
  viability, T/C: 144%
[6]
  viability, T/C: 103%
[7]
  viability, T/C: 118%
[8]
  viability, T/C: 104%
[9]
  viability, T/C: 124%
[10]
  viability, T/C: 110%
[11]
  viability, T/C: 123%
[12]
  viability, T/C: 97.7%
[13]
  viability, T/C: 107%
[14]
  viability, T/C: 87.6%
[15]
  viability, T/C: 76.6%
[16]
  viability, T/C: 95.2%
[17]
  viability, T/C: 146%
[18]
  viability, T/C: 88.3%
[19]
  viability, T/C: 102%
[20]
  viability, T/C: 97%
[21]
  viability, T/C: 103%
[22]
  viability, T/C: 129%
[23]
  viability, T/C: 114%
[24]
  viability, T/C: 85.5%
[25]
  viability, T/C: 136%
[26]
  viability, T/C: 94.5%
[27]
  viability, T/C: 110%
[28]
  viability, T/C: 136%
[29]
  viability, T/C: 127%
[30]
  viability, T/C: 103%
[31]
  viability, T/C: 108%
[32]
  viability, T/C: 113%
[33]
  viability, T/C: 113%
[34]
  viability, T/C: 108%
[35]
  viability, T/C: 142%
[36]
  viability, T/C: 97.2%
